{"source": "patent US10328093B2", "about": "“Anthracycline formulations” (CYTRX CORPORATION, priority 2012, dated 2019)", "experiment": "IV Admixture stability in LR at approximately 2.4 mg/mL after reconstitution", "type": "physicochemical", "settings": "for pH drop: from zero to two hours", "procedure": "To analyze DOXO-EMCH's behavior in solution, a reversed-phase (RP) HPLC method for quantitation of DOXO-EMCH and various impurities and degradation products was utilized. Samples (1.0 μL injection volume) were assayed on an HPLC system fitted with a Phenomenex Gemini C18 column 100×2.0 mm, 3 μm at a flow rate of 0.3 mL/min. The mobile phase used was an acetate/acetonitrile gradient. The degradation product EMCH could not be detected using the above HPLC method, and was therefore determined using a liquid chromatography-mass spectrometry (LC-MS) method.\nIV Admixture stability studies were designed to use the reconstitution diluent found suitable in part 1 following the procedure outlined below. Briefly, to prepare an IV Admixture solution containing approximately 2.4 mg/mL DOXO-EMCH, the required volume for reconstitution was withdrawn from the IV infusion solution bag intended for final administration. The required volume for reconstitution of the respective diluent was measured and transferred into a vial of lyophilized DOXO-EMCH. The vial of DOXO-EMCH and diluent was gently swirled to dissolve the vial contents and obtain a homogeneous mixture. The reconstituted solution of drug product was inspected to ensure that the drug was completely dissolved and that no foreign matter was present. This procedure was repeated for the total number of vials required to prepare the calculated dose of DOXO-EMCH in IV infusion solution. The required volume of reconstituted DOXO-EMCH solution was then withdrawn from the drug product vials using a suitably sized syringe, and injected into the IV infution solution bag. The contents of the IV infusion solution bag were thoroughly mixed to obtain a homogeneous mixture. The IV infusion bag was then stored at room temperature and protected from light.\nThe IV Admixture study was performed by first removing 3 vials of 200 mg lyophilized DOXO-EMCH drug product from storage at −20° C. and allowing the vials to come to room temperature. […] Each of the vials was reconstituted as described above. The required volume of the reconstitution diluent (20 mL) was drawn into an appropriate plastic syringe using a needle and injected through the stopper of each vial. The reconstituted vial was then swirled and visually inspected for complete reconstitution to form a clear, homogeneous solution. The time required to form a clear, homogeneous solution was recorded. The required volume (20.0 mL of a 10 mg/mL constituted solution) was transferred from each reconstituted vial into the 250 mL IV Admixture solution as described above. Briefly, the required volume (20.0 mL of a 10 mg/mL constituted solution) was withdrawn using an appropriate plastic syringe and needle, the required volume of constituted drug product was transferred from each of three vials into the 250 mL IV Admixture using an appropriate plastic syringe and needle, and the contents of the IV Admixture were completely mixed to obtain a homogeneous mixture at a target concentration of approximately 2.4 mg/mL. The IV bag was weighed prior to injection of constituted drug product. […] solution, diluting with chilled HPLC method diluent to achieve a target concentration of 0.24 mg/mL, and injecting into the HPLC. Duplicate injections were made for each time point. The pH of the IV Admixture and sample prepared for HPLC analysis were also measured at each time point. The empty IV bag was weighed at study completion to calculate the actual IV Admixture solution volume in each bag.\nThe reconstituted solution was evaluated for color, clarity, and absence of insoluble material in the vial after every 30 seconds of mixing. Following addition of the reconstituted drug product solution to the IV bag, the resulting IV Admixture was evaluated for color, clarity, and absence of any insoluble material immediately after mixing and at each analytical time point. The amount (area %) of the degradation product doxorubicin was determined at each time point. […]", "key": {"[1]": {"settings": "reconstituted in 50:50 ethanol:water, diluted in LR, two hour time point, average of two studies"}, "[2]": {"settings": "reconstituted in LR, diluted in LR to ~2.4 mg/mL, Study #1, ambient temperature, 0 min"}, "[3]": {"settings": "reconstituted in LR, diluted in LR to ~2.4 mg/mL, Study #1, ambient temperature, 30 min"}, "[4]": {"settings": "reconstituted in LR, diluted in LR to ~2.4 mg/mL, Study #1, ambient temperature, 60 min"}, "[5]": {"settings": "reconstituted in LR, diluted in LR to ~2.4 mg/mL, Study #1, ambient temperature, 120 min"}, "[6]": {"settings": "reconstituted in LR, diluted in LR to ~2.4 mg/mL, Study #1, ambient temperature, 150 min"}, "[7]": {"settings": "reconstituted in LR, diluted in LR to ~2.4 mg/mL, Study #1, ambient temperature, 240 min"}, "[8]": {"settings": "reconstituted in LR, diluted in LR to ~2.4 mg/mL, Study #2, ambient temperature, 0 min"}, "[9]": {"settings": "reconstituted in LR, diluted in LR to ~2.4 mg/mL, Study #2, ambient temperature, 30 min"}, "[10]": {"settings": "reconstituted in LR, diluted in LR to ~2.4 mg/mL, Study #2, ambient temperature, 60 min"}, "[11]": {"settings": "reconstituted in LR, diluted in LR to ~2.4 mg/mL, Study #2, ambient temperature, 90 min"}, "[12]": {"settings": "reconstituted in LR, diluted in LR to ~2.4 mg/mL, Study #2, ambient temperature, 120 min"}, "[13]": {"settings": "reconstituted in LR, diluted in LR to ~2.4 mg/mL, Study #2, ambient temperature, 150 min"}, "[14]": {"settings": "reconstituted in SWFI (~10 mg/mL), diluted in LR IV bag to ~2.4 mg/mL, ambient temperature, 30 min"}, "[15]": {"settings": "reconstituted in SWFI (~10 mg/mL), diluted in LR IV bag to ~2.4 mg/mL, ambient temperature, 60 min"}, "[16]": {"settings": "reconstituted in SWFI (~10 mg/mL), diluted in LR IV bag to ~2.4 mg/mL, ambient temperature, 150 min"}, "[17]": {"settings": "reconstituted in SWFI (~10 mg/mL), diluted in LR IV bag to ~2.4 mg/mL, ambient temperature, 240 min"}, "[18]": {"settings": "reconstituted in ethanol:water, diluted in LR to ~2.4 mg/mL, Study #1, ambient temperature, 0 min"}, "[19]": {"settings": "reconstituted in ethanol:water, diluted in LR to ~2.4 mg/mL, Study #1, ambient temperature, 30 min"}, "[20]": {"settings": "reconstituted in ethanol:water, diluted in LR to ~2.4 mg/mL, Study #1, ambient temperature, 60 min"}, "[21]": {"settings": "reconstituted in ethanol:water, diluted in LR to ~2.4 mg/mL, Study #1, ambient temperature, 90 min"}, "[22]": {"settings": "reconstituted in ethanol:water, diluted in LR to ~2.4 mg/mL, Study #1, ambient temperature, 120 min"}, "[23]": {"settings": "reconstituted in ethanol:water, diluted in LR to ~2.4 mg/mL, Study #1, ambient temperature, 150 min"}, "[24]": {"settings": "reconstituted in ethanol:water, diluted in LR to ~2.4 mg/mL, Study #2, ambient temperature, 0 min"}, "[25]": {"settings": "reconstituted in ethanol:water, diluted in LR to ~2.4 mg/mL, Study #2, ambient temperature, 30 min"}, "[26]": {"settings": "reconstituted in ethanol:water, diluted in LR to ~2.4 mg/mL, Study #2, ambient temperature, 60 min"}, "[27]": {"settings": "reconstituted in ethanol:water, diluted in LR to ~2.4 mg/mL, Study #2, ambient temperature, 120 min"}, "[28]": {"settings": "reconstituted in ethanol:water, diluted in LR to ~2.4 mg/mL, Study #2, ambient temperature, 150 min"}, "[29]": {"settings": "reconstituted in ethanol:water, diluted in LR to ~2.4 mg/mL, Study #2, ambient temperature, 240 min"}}}
{"smiles": "COc1cccc2c1C(=O)c1c(O)c3c(c(O)c1C2=O)C[C@@](O)(/C(CO)=N/NC(=O)CCCCCN1C(=O)C=CC1=O)C[C@@H]3O[C@H]1C[C@H](N)[C@H](O)[C@H](C)O1.Cl", "note": "[DOXO-EMCH]", "values": [{"measurement": "stability of IV solutions in LR", "setting": "drug product reconstituted in any of SWFI, LR, 50:50 ethanol/water, based on accumulation of doxorubicin", "value": "relatively stable for two hours or more"}, {"measurement": "pH drop", "setting": "reconstituted in 50:50 ethanol:water, diluted in LR, two studies", "value": "0.3-0.4 units"}, {"measurement": "average doxorubicin content", "setting": "[1]", "value": 2.0, "unit": "%"}, {"measurement": "average pH", "setting": "[1]", "value": 5.9}, {"measurement": "Doxorubicin", "setting": "[2]", "value": 1.10, "unit": "Area %"}, {"measurement": "pH", "setting": "[2]", "value": 5.99}, {"measurement": "Doxorubicin", "setting": "[3]", "value": 1.28, "unit": "Area %"}, {"measurement": "pH", "setting": "[3]", "value": 5.87}, {"measurement": "Doxorubicin", "setting": "[4]", "value": 1.74, "unit": "Area %"}, {"measurement": "pH", "setting": "[4]", "value": 5.85}, {"measurement": "Doxorubicin", "setting": "[5]", "value": 2.24, "unit": "Area %"}, {"measurement": "pH", "setting": "[5]", "value": 5.76}, {"measurement": "Doxorubicin", "setting": "[6]", "value": 2.93, "unit": "Area %"}, {"measurement": "pH", "setting": "[6]", "value": 5.75}, {"measurement": "Doxorubicin", "setting": "[7]", "value": 3.80, "unit": "Area %"}, {"measurement": "pH", "setting": "[7]", "value": 5.67}, {"measurement": "Doxorubicin", "setting": "[8]", "value": 1.03, "unit": "Area %"}, {"measurement": "pH", "setting": "[8]", "value": 6.10}, {"measurement": "Doxorubicin", "setting": "[9]", "value": 1.04, "unit": "Area %"}, {"measurement": "pH", "setting": "[9]", "value": 5.98}, {"measurement": "Doxorubicin", "setting": "[10]", "value": 1.68, "unit": "Area %"}, {"measurement": "pH", "setting": "[10]", "value": 5.94}, {"measurement": "Doxorubicin", "setting": "[11]", "value": 1.67, "unit": "Area %"}, {"measurement": "pH", "setting": "[11]", "value": 5.89}, {"measurement": "Doxorubicin", "setting": "[12]", "value": 2.53, "unit": "Area %"}, {"measurement": "pH", "setting": "[12]", "value": 5.79}, {"measurement": "Doxorubicin", "setting": "[13]", "value": 2.50, "unit": "Area %"}, {"measurement": "pH", "setting": "[13]", "value": 5.77}, {"measurement": "pH drop", "setting": "reconstituted in LR, diluted in LR, two studies", "value": "0.2-0.3 units"}, {"measurement": "average pH", "setting": "reconstituted in LR, diluted in LR, two hour time point, average of two studies", "value": 5.8}, {"measurement": "Doxorubicin", "setting": "reconstituted in SWFI (~10 mg/mL), diluted in LR IV bag to ~2.4 mg/mL, ambient temperature, 0 min", "value": 1.23, "unit": "Area %"}, {"measurement": "Doxorubicin", "setting": "[14]", "value": 1.40, "unit": "Area %"}, {"measurement": "pH", "setting": "[14]", "value": 5.98}, {"measurement": "Doxorubicin", "setting": "[15]", "value": 1.88, "unit": "Area %"}, {"measurement": "pH", "setting": "[15]", "value": 5.84}, {"measurement": "Doxorubicin", "setting": "[16]", "value": 3.23, "unit": "Area %"}, {"measurement": "pH", "setting": "[16]", "value": 5.73}, {"measurement": "Doxorubicin", "setting": "[17]", "value": 4.23, "unit": "Area %"}, {"measurement": "pH", "setting": "[17]", "value": 5.62}, {"measurement": "pH drop", "setting": "reconstituted in SWFI, diluted in LR", "value": "about 0.4 units"}, {"measurement": "Doxorubicin", "setting": "[18]", "value": 1.0, "unit": "Area %"}, {"measurement": "pH", "setting": "[18]", "value": 6.22}, {"measurement": "Doxorubicin", "setting": "[19]", "value": 1.1, "unit": "Area %"}, {"measurement": "pH", "setting": "[19]", "value": 6.04}, {"measurement": "Doxorubicin", "setting": "[20]", "value": 1.3, "unit": "Area %"}, {"measurement": "pH", "setting": "[20]", "value": 5.95}, {"measurement": "Doxorubicin", "setting": "[21]", "value": 1.7, "unit": "Area %"}, {"measurement": "pH", "setting": "[21]", "value": 5.89}, {"measurement": "Doxorubicin", "setting": "[22]", "value": 1.9, "unit": "Area %"}, {"measurement": "pH", "setting": "[22]", "value": 5.83}, {"measurement": "Doxorubicin", "setting": "[23]", "value": 2.3, "unit": "Area %"}, {"measurement": "pH", "setting": "[23]", "value": 5.82}, {"measurement": "Doxorubicin", "setting": "[24]", "value": 1.1, "unit": "Area %"}, {"measurement": "pH", "setting": "[24]", "value": 6.19}, {"measurement": "Doxorubicin", "setting": "[25]", "value": 1.3, "unit": "Area %"}, {"measurement": "pH", "setting": "[25]", "value": 6.05}, {"measurement": "Doxorubicin", "setting": "[26]", "value": 1.5, "unit": "Area %"}, {"measurement": "pH", "setting": "[26]", "value": 5.99}, {"measurement": "Doxorubicin", "setting": "[27]", "value": 2.1, "unit": "Area %"}, {"measurement": "pH", "setting": "[27]", "value": 5.89}, {"measurement": "Doxorubicin", "setting": "[28]", "value": 2.3, "unit": "Area %"}, {"measurement": "pH", "setting": "[28]", "value": 5.87}, {"measurement": "Doxorubicin", "setting": "[29]", "value": 3.4, "unit": "Area %"}, {"measurement": "pH", "setting": "[29]", "value": 5.80}]}
